Test [1] concerns the target T1, human FXR alpha ligand binding domain (Homo sapiens, UniProt Q96RI1).
T1 construct: made in house; host or cells: E. coli BL21(DE3), vector pDEST15
T1 sequence (Q96RI1 187-472 isoform Q96RI1-2): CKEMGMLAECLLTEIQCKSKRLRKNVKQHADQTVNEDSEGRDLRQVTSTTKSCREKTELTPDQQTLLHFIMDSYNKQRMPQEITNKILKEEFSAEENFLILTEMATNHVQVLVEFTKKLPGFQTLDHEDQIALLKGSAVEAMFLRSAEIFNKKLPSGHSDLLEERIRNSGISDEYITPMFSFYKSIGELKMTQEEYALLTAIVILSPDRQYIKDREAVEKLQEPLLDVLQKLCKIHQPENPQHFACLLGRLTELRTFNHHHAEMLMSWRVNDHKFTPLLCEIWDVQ
In words: FRET activity assay (ligand mediated cofactor peptide interaction, LANCE). It is filed as biochemical. The following applies: GST-FXR-LBD / biotinylated SRC-1 peptide (676-700), read-out: F EC50. The procedure: Determination of a ligand mediated cofactor peptide interaction to quantify ligand binding to the nuclear receptor FXR was performed as follows: Preparation of human FXR alpha ligand binding domain: The human FXRalpha LBD was expressed in E. coli strain BL21(DE3) as an N-terminally GST tagged fusion protein. The DNA encoding the FXR ligand binding domain was cloned into vector pDEST15 (Invitrogen). Expression was under control of an IPTG inducible T7 promoter. The amino acid boundaries of the ligand binding domain were amino acids 187-472 of Database entry NM_005123 (RefSeq). Expression and purification of the FXR-LBD: An overnight preculture of a transformed E. coli strain was diluted 1:20 in LB-Ampicillin medium and grown at 30° C. to an optical density of OD600=0.4-0.6. Gene expression was then induced by addition of 0.5 mM IPTG. Cells were incubated an additional 6 h at 30° C., 180 rpm. Cells were collected by centrifugation (7000×g, 7 min, rt). Per liter of original cell culture, cells were resuspended in 10 mL lysis buffer (50 mM Glucose, 50 mM Tris pH 7.9, 1 mM EDTA and 4 mg/mL lysozyme) and left on ice for 30 min. Cells were then subjected to sonication and cell debris removed via centrifugation (22000×g, 30 min, 4° C.). Per 10 mL of supernatant 0.5 mL prewashed Glutathione 4B sepharose slurry (Qiagen) was added and the suspension kept slowly rotating for 1 h at 4° C. Glutathione 4B sepharose beads were pelleted by centrifugation (2000×g, 15 sec, 4° C.) and washed twice in wash buffer (25 mM Tris, 50 mM KCl, 4 mM MgCl2 and 1M NaCl). The pellet was resuspended in 3 mL elution buffer per liter of original culture (elution buffer: 20 mM Tris, 60 mM KCl, 5 mM MgCl2 and 80 mM glutathione added immediately prior to use as powder). The suspension was left rotating for 15 min at 4° C., the beads pelleted and eluted again with half the volume of elution buffer than the first time. The eluates were pooled and dialysed overnight in 20 mM Hepes buffer (pH 7.5) containing 60 mM KCl, 5 mM MgCl2 as well as 1 mM dithiothreitol and 10% (v/v) glycerol. The protein was analysed by SDS-Page.
The method measures the ability of putative ligands to modulate the interaction between the purified bacterial expressed FXR ligand binding domain (LBD) and a synthetic biotinylated peptide based on residues 676-700 of SRC-1 (LCD2, 676-700). The sequence of the peptide used was B—[…]—COOH where the N-terminus was biotinylated (B). The ligand binding domain (LBD) of FXR was expressed as fusion protein with GST in BL-21 cells using the vector pDEST15. Cells were lysed by sonication, and the fusion proteins purified over glutathione sepharose (Pharmacia) according to the manufacturers instructions. For screening of compounds for their influence on the FXR-peptide interaction, the Perkin Elmer LANCE technology was applied. This method relies on the binding dependent energy transfer from a donor to an acceptor fluorophor attached to the binding partner of interest. For ease of handling and reduction of background from compound fluorescence LANCE technology makes use of generic fluorophore labels and time resolved detection Assays were done in a final volume of 25 μL in a 384 well plate, in a Tris-based buffer (20 mM Tris-HCl pH 7.5; 60 mM KCl, 5 mM MgCl2; 35 ng/μL BSA), containing 20-60 ng/well recombinantly expressed FXR-LBD fused to GST, 200-600 nM N-terminally biotinylated peptide, representing SRC1 aminoacids 676-700, 200 ng/well Streptavidin-xIAPC conjugate (Prozyme) and 6-10 ng/well Eu W1024-antiGST (Perkin Elmer). DMSO content of the samples was kept at 1%. After generation of the assay mix and diluting the potentially FXR modulating ligands, the assay was equilibrated for 1 h in the dark at rt in FIA-plates black 384 well (Greiner). The LANCE signal was detected by a Perkin Elmer VICTOR2VTM Multilabel Counter. The results were visualized by plotting the ratio between the emitted light at 665 and 615 nm. […]

Test [2] concerns the target T2, FXR ligand binding domain (Homo sapiens, UniProt Q96RI1).
T2 construct: expressed in transfected cells; host or cells: HEK293 cells, transiently transfected with pCMV-BD-FXR-LBD, pFR-Luc and pRL-CMV
T2 sequence (Q96RI1 187-472 isoform Q96RI1-2): T1 sequence (Q96RI1 187-472 isoform Q96RI1-2)
Briefly: Mammalian One Hybrid (M1H) assay, Gal4 promoter driven transactivation in HEK293 cells. The conditions noted are these: Gal4-FXR-LBD luciferase reporter, 16 h. The class given is cell-based. On the procedure:
Mammalian One Hybrid (M1H) Assay
Determination of a ligand mediated Gal4 promoter driven transactivation to quantify ligand binding mediated activation of FXR was performed as follows: The cDNA part encoding the FXR ligand binding domain was cloned into vector pCMV-BD (Stratagene) as a fusion to the yeast GAL4 DNA binding domain under the control of the CMV promoter. The amino acid boundaries of the ligand binding domain were amino acids 187-472 of Database entry NM_005123 (RefSeq). The plasmid pFR-Luc (Stratagene) was used as the reporter plasmid, containing a synthetic promoter with five tandem repeats of the yeast GAL4 binding sites, driving the expression of the Photinus pyralis (American firefly) luciferase gene as the reporter gene. In order to improve experimental accuracy the plasmid pRL-CMV (Promega) was cotransfected. pRL-CMV contains the constitutive CMV promoter, controlling the expression of the Renilla reniformis luciferase. All Gal4 reporter gene assays were done in HEK293 cells (obtained from DSMZ, Braunschweig, Germany) grown in MEM with L-Glutamine and Earle's BSS supplemented with 10% fetal bovine serum, 0.1 mM nonessential amino acids, 1 mM sodium pyruvate, and 100 units Penicilin/[…] per mL at 37° C. in 5% CO2. Medium and supplements were obtained from Invitrogen. For the assay, […] cells were plated per well in 96 well plates in 100 μL per well MEM without Phenol Red and L-Glutamine and with Earle's BSS supplemented with 10% charcoal/dextran treated FBS (HyClone, South Logan, Utah), 0.1 mM nonessential amino acids, 2 mM glutamine, 1 mM sodium pyruvate, and 100 units Penicilin/[…] per mL, incubated at 37° C. in 5% CO2. The following day the cells were >90% confluence. Medium was removed and cells were transiently transfected using 20 μL per well of a OptiMEM—polyethylene-imine-based transfection-reagent (OptiMEM, Invitrogen; Polyethyleneimine, Aldrich Cat No. 40,827-7) including the three plasmids described above. MEM with the same composition as used for plating cells was added 2-4 h after addition of transfection mixture. Then compound stocks, prediluted in MEM were added (final vehicle concentration not exceeding 0.1%). Cells were incubated for additional 16 h before firefly and renilla luciferase activities were measured sequentially in the same cell extract using a Dual-Light-Luciferase-Assay system (Dyer et al., Anal. Biochem. 2000, 282, 158-161). All experiments were done in triplicates.

Here are results for 14 molecules from patent US9751874B2, “Hydroxy containing FXR (NR1H4) modulating compounds” (Gilead Sciences, Inc., priority 2014, dated 2017).

As for `CC1(C)C[C@@H](OCc2c(-c3c(Cl)cccc3Cl)noc2C2CC2)CC[C@]1(O)c1nc2c(F)cc(C(=O)O)cc2s1` (racemic) [Example 11-32, 2-((1R,4S)-4-((5-Cyclopropyl-3-(2,6-dichlorophenyl)isoxazol-4-yl)methoxy)-1-hydroxy-2,2-dimethylcyclohexyl)-4-fluorobenzo[d]thiazole-6-carboxylic acid], the EC50 (commonly the concentration at which the effect is half-maximal) in test [1] worked out at 120 nM; in test [2], 23 nM.
For the molecule `CC1(C)C[C@](O)(c2nc3c(F)cc(C(=O)O)cc3s2)CC[C@H]1OCc1c(-c2c(Cl)cccc2Cl)noc1C1CC1` (racemic) [Example 11-33, 2-((1S,4R)-4-((5-Cyclopropyl-3-(2,6-dichlorophenyl)isoxazol-4-yl)methoxy)-1-hydroxy-3,3-dimethylcyclohexyl)-4-fluorobenzo[d]thiazole-6-carboxylic acid], the EC50 in test [1] is 36 nM; in test [2], 38 nM.
For `O=C(O)c1ccc2nc(C3(O)CC4(CC(OCc5c(-c6c(Cl)cccc6Cl)noc5C5CC5)C4)C3)sc2c1` (single isomer, unassigned) [Example 11-4a, 2-(6-((5-Cyclopropyl-3-(2,6-dichlorophenyl)isoxazol-4-yl)methoxy)-2-hydroxyspiro[3.3]heptan-2-yl)benzo[d]thiazole-6-carboxylic acid], in that order: 56 nM and 300 nM.
With `O=C(O)c1ccc2nc(C3(O)CC4(CC(OCc5c(-c6c(Cl)cccc6Cl)noc5C5CC5)C4)C3)sc2c1` (single isomer, unassigned) [Example 11-4b, 2-(6-((5-Cyclopropyl-3-(2,6-dichlorophenyl)isoxazol-4-yl)methoxy)-2-hydroxyspiro[3.3]heptan-2-yl)benzo[d]thiazole-6-carboxylic acid], the EC50 amounted to 120 nM in test [1] and 380 nM in test [2].
For `CC1(OCc2c(-c3c(Cl)cccc3Cl)noc2C2CC2)C[C@H]2CC[C@@H](C1)[C@]2(O)c1nc2c(F)cc(C(=O)O)cc2s1` (single isomer, unassigned) [Example 11-39], the EC50 in test [1] is 390 nM; in test [2], 250 nM.
Take `O=C(O)c1cc(F)c2nc([C@]3(O)[C@@H]4CC[C@H]3CC(OCc3c(-c5c(Cl)cccc5Cl)noc3C3CC3)(C(F)F)C4)sc2c1` (single isomer, unassigned) [Example 11-40]: the values for the EC50 in test [1] and in test [2] were 420 nM and 290 nM, respectively.
Turning to `COCC1(OCc2c(-c3c(Cl)cccc3Cl)noc2C2CC2)C[C@H]2CC[C@@H](C1)[C@]2(O)c1nc2c(F)cc(C(=O)O)cc2s1` (single isomer, unassigned) [Example 11-41], the EC50 in test [1] worked out at 190 nM; in test [2], 320 nM.
For `O=C(O)c1cc(F)c2nc([C@]3(O)CC4CC3CC4OCc3c(-c4c(Cl)cccc4Cl)noc3C3CC3)sc2c1` (single isomer, unassigned) [Example 11-48], the half-maximal effective concentration (EC50) in test [1] came to 46 nM; in test [2] it was 190 nM.
Regarding `O=C(O)c1cc(F)c2nc(C3(O)C[C@H]4CC[C@@H](C3)C4OCc3c(-c4c(Cl)cccc4Cl)noc3C3CC3)sc2c1` (single isomer, unassigned) [Example 11-54], the EC50 amounted to 810 nM in test [1] and 390 nM in test [2].
With `O=C(O)c1cc(F)c2nc(C3(O)C[C@H]4CC[C@@H](C3)C4OCc3c(-c4c(Cl)cccc4Cl)noc3C3CC3)sc2c1` (single isomer, unassigned) [Example 11-55], the EC50 in test [1] came to 77 nM; in test [2] it was 24 nM.
For `O=C(O)c1ccc2sc([C@]3(O)CC[C@@H](OCc4c(-c5c(Cl)cccc5Cl)noc4C4CC4)CC3)nc2c1` [Example 4, 2-((1s,4s)-4-((5-Cyclopropyl-3-(2,6-dichlorophenyl)isoxazol-4-yl)methoxy)-1-hydroxycyclohexyl)benzo[d]thiazole-5-carboxylic acid], in that order: 21 nM and 100 nM.
Take `O=C(O)c1ccc2sc([C@]3(O)CC[C@H](OCc4c(-c5c(Cl)cccc5Cl)noc4C4CC4)CC3)nc2c1` [Example 5, 2-((1r,4r)-4-((5-Cyclopropyl-3-(2,6-dichlorophenyl)isoxazol-4-yl)methoxy)-1-hydroxycyclohexyl)benzo[d]thiazole-5-carboxylic acid]: the EC50 in test [1] stood at 620 nM; in test [2], 1900 nM.
Turning to `N#Cc1ccc2nc([C@]3(O)[C@@H]4CC[C@H]3C[C@H](OCc3c(-c5c(Cl)cccc5Cl)noc3C3CC3)C4)sc2c1` [Example 8-5, 2-((1R,3s,5S,8r)-3-((5-Cyclopropyl-3-(2,6-dichlorophenyl)isoxazol-4-yl)methoxy)-8-hydroxybicyclo[3.2.1]octan-8-yl)benzo[d]thiazole-6-carbonitrile], the EC50 was determined as 31 nM in test [1] and 58 nM in test [2].
On to `OCc1ccc([C@]2(O)CC[C@@H](OCc3c(-c4c(Cl)cccc4Cl)noc3C3CC3)CC2)c(F)c1` [Example 9-6, (1s,4s)-4-((5-Cyclopropyl-3-(2,6-dichlorophenyl)isoxazol-4-yl)methoxy)-1-(2-fluoro-4-(hydroxymethyl)phenyl)cyclohexanol], for which the EC50 in test [1] came to 220 nM; in test [2], 320 nM.
